US9572787B2, “Inhibition of renal fibrosis” (Rhode Island Hospital, priority 2011, dated 2017)

Assays:
[1] = system: NRK-49F cells; experiment: S3I-201 in cultured renal interstitial fibroblasts (immunoblot, qRT-PCR); type: cell-based, rat
Description: Cell culture and treatments. NRK-49F cells were cultured in Dulbecco's modified eagle's medium (DMEM) (Sigma-Aldrich, St. Louis, Mo.) containing 10% fetal bovine serum (FBS), 0.5% penicillin and streptomycin in an atmosphere of 5% CO2 and 95% air at 37° C. Western blot analysis and Sirius red and immunofluorescent staining were carried out according to standard methods. Quantitative real-time PCR. Real time qRT-PCR amplifications were performed in 20 μl reactions. The amplification protocol was as follows: denaturation for 10 minutes and enzyme activation at 95° C., 40 cycles of 95° C.×10 sec, 59° C.×30 sec, and 72° C.×20 sec, followed by one step […] at 72° C. for 5 minutes. Relative mRNA abundance was determined from the ratios of specific mRNA to 18S ribosomal RNA measured in the same samples, and fold change was calculated relative to the group of sham-operated mice with vehicle treatment.

[2] = system: obstructive kidney (UUO); experiment: UUO model, daily S3I-201 treatment; type: in vivo, mouse; conditions: for STAT3 phosphorylation: 10 mg/kg i.p. daily
Description: Unilateral […] obstruction (UUO) model and S3I-201 treatment. The UUO model was established in male C57 black mice that weighed 20-25 g (Jackson Laboratory, Bar Harbor, Me.) as described previously. The contralateral kidneys were used as controls. To examine the efficacy of S3I-201 in renal fibrosis after UUO injury, S3I-201 (10 mg/kg) in 50 μl of dimethyl sulfoxide (DMSO) was intraperitoneally administered to mice immediately after ureter ligation and then given daily for 6 or 13 days. Mice were randomized into 4 groups with 6-7 mice in each group as follows: (1) sham injury with DMSO as vehicle; (2) sham injury with S3I-201; (3) UUO injury with DMSO; (4) UUO injury with S3I-201.
Western blot analysis and Sirius red and immunofluorescent staining were carried out according to standard methods.
Quantitative real-time PCR. Real time qRT-PCR amplifications were performed in 20 μl reactions. The amplification protocol was as follows: denaturation for 10 minutes and enzyme activation at 95° C., 40 cycles of 95° C.×10 sec, 59° C.×30 sec, and 72° C.×20 sec, followed by one step […] at 72° C. for 5 minutes. Relative mRNA abundance was determined from the ratios of specific mRNA to 18S ribosomal RNA measured in the same samples, and fold change was calculated relative to the group of sham-operated mice with vehicle treatment.
ELISA. Protein levels of TGF-β1, TNF-α, and IL-1β in kidney homogenates were determined using specific sandwich enzyme immunometric assay kits, ELISA Ready-SET-Go (eBioscience, Inc. San Diego, Calif.) as described previously. The results were normalized by total protein content in kidney homogenates.
In situ TUNEL assays. Terminal deoxynucleotidyl transferase biotin-dUTP nick end-labeling (TUNEL) staining was used to detect DNA strand breaks using a detection kit, according to the instructions provided by the manufacturer. The number of TUNEL-positive nuclei per field was evaluated in five fields per section and five sections per kidney.

[3] = dose- and time-dependent, 24 h dose series, 50 μM time course

Cc1ccc(S(=O)(=O)OCC(=O)Nc2ccc(C(=O)O)c(O)c2)cc1 [S3I-201]
expression of p-STAT3 ([1]; 100 μM, 3 h): complete inhibition | TGF-β1 mRNA expression ([1]; 5% FBS, 50 μM S3I-201, 6 h): significantly decreased | TβRII mRNA expression ([1]; 5% FBS, 50 μM S3I-201, 6 h): significantly decreased | TβRIII mRNA expression ([1]; 5% FBS, 50 μM S3I-201, 6 h): significantly decreased | expression of p-STAT1 ([1]; 3 h, dose dependent): increased | STAT5 phosphorylation ([1]; 3 h, indicated concentrations): did not affect | expression of fibronectin [1, 3]: dramatically decreased | expression of α-SMA [1, 3]: dramatically decreased | apoptosis of interstitial cells (TUNEL) ([2]; 10 mg/kg daily for 7 days): increased apoptosis | apoptosis of renal tubular cells (TUNEL) ([2]; 10 mg/kg daily for 7 days): did not induce apoptosis | proliferation of interstitial cells (phospho-histone H3 Ser 10) ([2]; 10 mg/kg daily for 7 days): decreased their proliferation | ICAM-1 mRNA expression ([2]; 10 mg/kg daily, day 7): reduced | IL-1β mRNA expression ([2]; 10 mg/kg daily, day 7): reduced | IL-1β protein (ELISA) ([2]; 10 mg/kg daily, day 7): significantly suppressed | Sirius red-positive areas ([2]; 10 mg/kg daily, day 7): significantly reduced | TGF-β1 mRNA expression ([2]; 10 mg/kg daily, day 7): reduced their levels | TGF-β1 protein (ELISA) ([2]; 10 mg/kg daily, day 7): decreased | TNF-α mRNA expression ([2]; 10 mg/kg daily, day 7): reduced | TNF-α protein (ELISA) ([2]; 10 mg/kg daily, day 7): significantly suppressed | TβRI mRNA expression at the basal level ([2]; 10 mg/kg daily, day 7): not affected | TβRII mRNA expression ([2]; 10 mg/kg daily, day 7): reduced their levels | TβRIII mRNA basal level ([2]; 10 mg/kg daily, day 7): reduced the basal level | UUO injury-induced MCP-1 mRNA expression ([2]; 10 mg/kg daily, day 7): did not affect | UUO-induced collagen type 1 mRNA expression ([2]; 10 mg/kg daily, day 7): attenuated this response | basal level of collagen type 1 expression in control kidneys ([2]; 10 mg/kg daily, day 7): did not affect | basal level of α-SMA expression in control kidneys ([2]; 10 mg/kg daily, day 7): did not affect | collagen type 1 expression in obstructive kidneys ([2]; 10 mg/kg daily, day 7): decreased collagen type 1 to the basal level | decrease in expression of ECM components (Sirius red, semi-quantitative) ([2]; 10 mg/kg daily, day 7): approximately 60% | expression of snail ([2]; 10 mg/kg daily, day 7): did not affect | expression of β-catenin ([2]; 10 mg/kg daily, day 7): did not affect | fibronectin expression (immunoblot densitometry) ([2]; 10 mg/kg daily, day 7): blocked | fibronectin expression (immunostaining) ([2]; 10 mg/kg daily, day 7): decreased its expression | leukocyte infiltration (naphthol AS-D chloroacetate esterase staining) ([2]; 10 mg/kg daily, day 7): reduced leukocyte infiltration to basal levels | α-SMA expression in obstructive kidneys ([2]; 10 mg/kg daily, day 7): inhibited | total STAT3 expression ([2]; 10 mg/kg daily, day 7 and day 14): not affected | collagen type 1 expression ([2]; 10 mg/kg daily, day 14): decreased | α-SMA expression ([2]; 10 mg/kg daily, day 14): decreased | STAT3 phosphorylation ([2]; day 7): largely suppressed | STAT3 phosphorylation ([2]; day 14): small inhibition
